Laboratory results reported in US11208400B2, “Substituted 6-(1H-pyrazol-1-yl)pyrimidin-4-amine derivatives and uses thereof” (Bayer Aktiengesellschaft, priority 2016, dated 2021).

Molecular target: T1, human Npt2a (Homo sapiens, UniProt Q06495)
T1 construct: expressed in transfected cells
T1 sequence (Q06495 1-639): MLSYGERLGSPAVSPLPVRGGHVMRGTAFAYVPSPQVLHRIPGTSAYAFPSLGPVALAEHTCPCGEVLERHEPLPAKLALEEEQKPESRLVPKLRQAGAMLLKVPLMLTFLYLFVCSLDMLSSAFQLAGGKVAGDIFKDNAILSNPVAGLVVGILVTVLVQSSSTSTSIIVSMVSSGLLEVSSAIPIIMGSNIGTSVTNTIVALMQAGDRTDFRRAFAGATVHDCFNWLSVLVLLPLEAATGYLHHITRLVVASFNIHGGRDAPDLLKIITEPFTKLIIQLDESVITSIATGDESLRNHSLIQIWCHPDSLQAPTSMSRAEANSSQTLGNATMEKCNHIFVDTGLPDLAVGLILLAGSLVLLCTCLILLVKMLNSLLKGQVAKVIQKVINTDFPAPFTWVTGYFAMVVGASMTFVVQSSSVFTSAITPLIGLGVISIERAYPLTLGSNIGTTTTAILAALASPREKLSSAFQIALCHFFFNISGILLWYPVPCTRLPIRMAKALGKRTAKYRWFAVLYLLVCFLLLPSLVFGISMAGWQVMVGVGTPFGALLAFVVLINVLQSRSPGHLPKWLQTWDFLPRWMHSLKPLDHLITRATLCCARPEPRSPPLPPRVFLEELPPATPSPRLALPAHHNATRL
Assay: Npt2a activity cell based assay, membrane potential dye, CHO T-REx hNpt2a cells
Details: doxycycline-induced, depolarization by sodium phosphate influx, average or median values if tested more than once
Summary of the method: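 Doxycycline-induced (0.5 μg/mL, 24 h) CHO T-REx cells were loaded with membrane potential dye in sodium-free NHE buffer (pH 7.4) and exposed to compound (50 μM–1 nM, 5 min, room temperature).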

CCOC(=O)c1c(C)nn(-c2cc(Nc3c(C)c(-c4ccc(C)nc4)nn3CC3CC3)ncn2)c1C [Example 418, ethyl 1-(6-{[1-(cyclopropylmethyl)-4-methyl-3-(6-methylpyridin-3-yl)-1H-pyrazol-5-yl]amino}pyrimidin-4-yl)-3,5-dimethyl-1H-pyrazole-4-carboxylate]
IC50: 65 nM

Cc1cc(C)n(-c2cc(Nc3c(C)c(-c4ccc(F)cn4)nn3CC3CC3)ncn2)n1 [Example 421, N-[1-(cyclopropylmethyl)-3-(5-fluoropyridin-2-yl)-4-methyl-1H-pyrazol-5-yl]-6-(3,5-dimethyl-1H-pyrazol-1-yl)pyrimidin-4-amine]
IC50: 410 nM

Cc1cc(C(F)F)n(-c2cc(Nc3c(C)c(-c4ccc(F)cn4)nn3CC3CC3)ncn2)n1 [Example 422, N-[1-(cyclopropylmethyl)-3-(5-fluoropyridin-2-yl)-4-methyl-1H-pyrazol-5-yl]-6-[5-(difluoromethyl)-3-methyl-1H-pyrazol-1-yl]pyrimidin-4-amine]
IC50: 240 nM

Cc1nn(-c2cc(Nc3c(C)c(-c4ccc(F)cc4)nn3CC3CC3)ncn2)c(C)c1S(C)(=O)=O [Example 423, N-[1-(cyclopropylmethyl)-3-(4-fluorophenyl)-4-methyl-1H-pyrazol-5-yl]-6-[3,5-dimethyl-4-(methylsulfonyl)-1H-pyrazol-1-yl]pyrimidin-4-amine]
IC50: 55 nM

Cc1c(Nc2cc(-n3cc(C(F)(F)F)cn3)ncn2)nn(C)c1-c1ccc(F)cc1 [Example 424, N-[5-(4-fluorophenyl)-1,4-dimethyl-1H-pyrazol-3-yl]-6-[4-(trifluoromethyl)-1H-pyrazol-1-yl]pyrimidin-4-amine]
IC50: 370 nM

Cc1c(-c2ccc(F)cc2)nn(CC2CC2)c1Nc1cc(-n2cc(C(F)(F)F)cn2)ncn1 [Example 426, N-[1-(cyclopropylmethyl)-3-(4-fluorophenyl)-4-methyl-1H-pyrazol-5-yl]-6-[4-(trifluoromethyl)-1H-pyrazol-1-yl]pyrimidin-4-amine]
IC50: 59 nM

Cc1c(-c2ccc(F)cc2)nn(C)c1Nc1cc(-n2cc(C(F)(F)F)cn2)ncn1 [Example 427, N-[3-(4-fluorophenyl)-1,4-dimethyl-1H-pyrazol-5-yl]-6-[4-(trifluoromethyl)-1H-pyrazol-1-yl]pyrimidin-4-amine]
IC50: 15 nM

COc1c(-c2ccc(C#N)cc2)nn(C)c1Nc1cc(-n2nc(C)c(CC(C)(C)O)c2C)ncn1 [Example 428, 4-[5-({6-[4-(2-hydroxy-2-methylpropyl)-3,5-dimethyl-1H-pyrazol-1-yl]pyrimidin-4-yl}amino)-4-methoxy-1-methyl-1H-pyrazol-3-yl]benzonitrile]
IC50: 550 nM

Cc1nn(-c2cc(Nc3c(C)c(-c4ccc(F)cc4)nn3CC3CC3)ncn2)c(C)c1O [Example 429, 1-(6-{[1-(cyclopropylmethyl)-3-(4-fluorophenyl)-4-methyl-1H-pyrazol-5-yl]amino}pyrimidin-4-yl)-3,5-dimethyl-1H-pyrazol-4-ol]
IC50: 17 nM

CSc1cc(-c2nn(CC3CC3)c(Nc3cc(-n4nc(C)cc4C)ncn3)c2C)ccc1F [Example 430, N-{1-(cyclopropylmethyl)-3-[4-fluoro-3-(methylsulfanyl)phenyl]-4-methyl-1H-pyrazol-5-yl}-6-(3,5-dimethyl-1H-pyrazol-1-yl)pyrimidin-4-amine]
IC50: 45 nM

Cc1c(-c2ccc(F)cc2)nn(CC2CC2)c1Nc1cc(-n2ncc3c2CN(C(=O)OC(C)(C)C)C3)ncn1 [Example 431, tert-butyl 1-(6-{[1-(cyclopropylmethyl)-3-(4-fluorophenyl)-4-methyl-1H-pyrazol-5-yl]amino}pyrimidin-4-yl)-4,6-dihydropyrrolo[3,4-c]pyrazole-5(1H)-carboxylate]
IC50: 69 nM

Cc1cc(C(F)F)n(-c2cc(Nc3nn(C)c(-c4ccc(C(F)F)cc4)c3C)ncn2)n1 [Example 432, 6-[5-(difluoromethyl)-3-methyl-1H-pyrazol-1-yl]-N-{5-[4-(difluoromethyl)phenyl]-1,4-dimethyl-1H-pyrazol-3-yl}pyrimidin-4-amine]
IC50: 320 nM

Cc1c(-c2ccc(F)cc2)nn(CC2CC2)c1Nc1cc(-n2cc3c(n2)CN(C(=O)OC(C)(C)C)C3)ncn1 [Example 433, tert-butyl 2-(6-{[1-(cyclopropylmethyl)-3-(4-fluorophenyl)-4-methyl-1H-pyrazol-5-yl]amino}pyrimidin-4-yl)-2,6-dihydropyrrolo[3,4-c]pyrazole-5(4H)-carboxylate]
IC50: 1500 nM

COc1c(C)nn(-c2cc(Nc3nn(C)c(-c4ccc(F)cc4)c3C)ncn2)c1C [Example 434, N-[5-(4-fluorophenyl)-1,4-dimethyl-1H-pyrazol-3-yl]-6-(4-methoxy-3,5-dimethyl-1H-pyrazol-1-yl)pyrimidin-4-amine]
IC50: 7 nM

COc1c(C)nn(-c2cc(Nc3nn(C)c(-c4ccc(C#N)cc4)c3C)ncn2)c1C [Example 435, 4-(3-{[6-(4-methoxy-3,5-dimethyl-1H-pyrazol-1-yl)pyrimidin-4-yl]amino}-1,4-dimethyl-1H-pyrazol-5-yl)benzonitrile]
IC50: 5 nM

COc1c(C)nn(-c2cc(Nc3c(C)c(-c4ccc(C#N)cc4)nn3C)ncn2)c1C [Example 436, 4-(5-{[6-(4-methoxy-3,5-dimethyl-1H-pyrazol-1-yl)pyrimidin-4-yl]amino}-1,4-dimethyl-1H-pyrazol-3-yl)benzonitrile]
IC50: 10 nM

COc1c(C)nn(-c2cc(Nc3c(C)c(-c4ccc(F)cc4)nn3C)ncn2)c1C [Example 437, N-[3-(4-fluorophenyl)-1,4-dimethyl-1H-pyrazol-5-yl]-6-(4-methoxy-3,5-dimethyl-1H-pyrazol-1-yl)pyrimidin-4-amine]
IC50: 21 nM

CCOC(=O)c1c(C)nn(-c2cc(Nc3c(C)c(-c4ccc(F)cn4)nn3CC3CC3)ncn2)c1C [Example 438, ethyl 1-(6-{[1-(cyclopropylmethyl)-3-(5-fluoropyridin-2-yl)-4-methyl-1H-pyrazol-5-yl]amino}pyrimidin-4-yl)-3,5-dimethyl-1H-pyrazole-4-carboxylate]
IC50: 16 nM

Cc1nn(-c2cc(Nc3c(C)c(-c4ccc(F)cn4)nn3CC3CC3)ncn2)c(C)c1Cl [Example 439, 6-(4-chloro-3,5-dimethyl-1H-pyrazol-1-yl)-N-[1-(cyclopropylmethyl)-3-(5-fluoropyridin-2-yl)-4-methyl-1H-pyrazol-5-yl]pyrimidin-4-amine]
IC50: 39 nM

CCc1c(Nc2cc(-n3nc(C)c(CC(=O)OC(C)C)c3C)ncn2)nn(C)c1-c1ccc(F)cc1 [Example 440, propan-2-yl [1-(6-{[4-ethyl-5-(4-fluorophenyl)-1-methyl-1H-pyrazol-3-yl]amino}pyrimidin-4-yl)-3,5-dimethyl-1H-pyrazol-4-yl]acetate]
IC50: 97 nM

Cc1cc(C)n(-c2cc(Nc3c(Cl)c(-c4ccc(C#N)cc4)nn3CC3CC3)ncn2)n1 [Example 441, 4-[4-chloro-1-(cyclopropylmethyl)-5-{[6-(3,5-dimethyl-1H-pyrazol-1-yl)pyrimidin-4-yl]amino}-1H-pyrazol-3-yl]benzonitrile]
IC50: 21 nM

CCOC(=O)c1c(C)nn(-c2cc(Nc3c(Cl)c(-c4ccc(C#N)cc4)nn3CC3CC3)ncn2)c1C [Example 442, ethyl 1-(6-{[4-chloro-3-(4-cyanophenyl)-1-(cyclopropylmethyl)-1H-pyrazol-5-yl]amino}pyrimidin-4-yl)-3,5-dimethyl-1H-pyrazole-4-carboxylate]
IC50: 8 nM

COc1c(Nc2cc(-n3nc(C)cc3C)ncn2)nn(C)c1-c1ccc(C#N)cc1 [Example 443, 4-(3-{[6-(3,5-dimethyl-1H-pyrazol-1-yl)pyrimidin-4-yl]amino}-4-methoxy-1-methyl-1H-pyrazol-5-yl)benzonitrile]
IC50: 11 nM

COc1c(-c2ccc(C#N)cc2)nn(C)c1Nc1cc(-n2nc(C)cc2C)ncn1 [Example 444, 4-(5-{[6-(3,5-dimethyl-1H-pyrazol-1-yl)pyrimidin-4-yl]amino}-4-methoxy-1-methyl-1H-pyrazol-3-yl)benzonitrile]
IC50: 120 nM

Cc1cc(C(F)F)n(-c2cc(Nc3c(Cl)c(-c4ccc(C#N)cc4)nn3CC3CC3)ncn2)n1 [Example 445, 4-[4-chloro-1-(cyclopropylmethyl)-5-({6-[5-(difluoromethyl)-3-methyl-1H-pyrazol-1-yl]pyrimidin-4-yl}amino)-1H-pyrazol-3-yl]benzonitrile]
IC50: 12 nM

CCOC(=O)c1c(C)nn(-c2cc(Nc3c(OC)c(-c4ccc(C#N)cc4)nn3C)ncn2)c1C [Example 446, ethyl 1-(6-{[3-(4-cyanophenyl)-4-methoxy-1-methyl-1H-pyrazol-5-yl]amino}pyrimidin-4-yl)-3,5-dimethyl-1H-pyrazole-4-carboxylate]
IC50: 12 nM

CCOC(=O)c1cc(C)nn1-c1cc(Nc2nn(C)c(-c3ccc(F)cc3)c2Cl)ncn1 [Example 447, ethyl 1-(6-{[4-chloro-5-(4-fluorophenyl)-1-methyl-1H-pyrazol-3-yl]amino}pyrimidin-4-yl)-3-methyl-1H-pyrazole-5-carboxylate]
IC50: 560 nM
